Columns and labels:
interleukin 6 (IL-6) = test: Cytokine release assay (IL-6) in PBMC stimulated with SARS-CoV2 proteins; assay type: cell-based, human
[1] = system: genes from the COVID-19 model; test: Transcription fingerprinting by 3' RNA-sequencing of nucleocapsid-stimulated cells; assay type: cell-based, human
[2] = compound effect vs nucleocapsid stimulation

COc1cc2ncnc(Nc3ccc(F)c(Cl)c3)c2cc1OCCCN1CCOCC1 [gefitinib]
Immune modulation of interleukin 6 (IL-6) release (interleukin 6 (IL-6); nucleocapsid (N) stimulation vs Mock, FIG. 1): stronger than by dexamethasone (DEX) alone
Expression of genes up- or down-regulated 2-fold by nucleocapsid (N) vs Mock ([1]; N+compound vs N, FIG. 4): “normalized” in their expression
Regulation of genes up-regulated at time 4 h N vs Mock ([1]; N-compound vs N, 4 h, FIG. 4 boxplots): strongly down-regulated
Regulation of genes downregulated in nucleocapsid (N) stimulation vs Mock [1, 2]: upregulated
Regulation of genes upregulated in nucleocapsid (N) stimulation vs Mock [1, 2]: downregulated

Nc1cccc2c1C(=O)N(C1CCC(=O)NC1=O)C2=O (stereo not drawn) [pomalidomide]
Immune modulation of interleukin 6 (IL-6) release (interleukin 6 (IL-6); spike (S) or spike trimer (St) stimulation vs Mock, GEF 0.5 μM and 5 μM, POM 100 ng/ml, FIG. 3): does not show immune modulation

From patent US20230270826A1, “ANTIVIRAL USE OF L[…] GEFITINIB” (priority 2020, published 2023)
